# Laboratory results from US11912668B2, “GCN2 and perk kinase inhibitors and methods of use thereof” (Deciphera Pharmaceuticals, LLC, priority 2020, dated 2024).
# Columns and labels:
# [1] = tested on: ATF4 in CCRF-CEM leukemia cells (PERK); assay: CCRF-CEM TG ATF4 ELISA, phenotypic assay for cellular inhibition of PERK preactivated by thapsigargin; format: cell-based; details: Homo sapiens; Thapsigargin (1 μM) stimulated CCRF-CEM cells
# PERK kinase = PERK kinase (Homo sapiens (Human), UniProt Q9NZJ5); assay: Biochemical assay for PERK (coupled pyruvate kinase/lactate dehydrogenase assay); details: 1 mM ATP, rate from 2-3 h time frame
# Procedure, shortened: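 Coupled pyruvate kinase/lactate dehydrogenase readout of ATP hydrolysis via NADH oxidation (A340), 10 nM PERK, 0.25 mg/mL myelin basic protein, 1 mM ATP, pH 7.5 Tris/MgCl2 buffer, 1% DMSO. Absorbance followed 6 h at 30° C; rate from the 2-3 h window, normalised to no-compound and known-inhibitor controls, IC50 fitted.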
# [2] = tested on: ATF4 in H929 multiple myeloma cells; assay: H929 ATF4 ELISA assay (stimulation of cellular ATF4); format: cell-based; details: 4 h, no thapsigargin
# Experimental: H929 multiple myeloma cells (catalog #CRL-9068) were obtained from the American Type Culture Collection (ATTC, Manassas, VA). Briefly, cells were grown in RPMI-1640 medium supplemented with 20% heat-inactivated fetal bovine serum (catalog #A3840002, ThermoFisher Scientific, Waltham, MA), 1% Penicillin/Streptomycin/L-Glutamine (catalog #10378016, ThermoFisher Scientific, Waltham, MA), and 0.05 mM 2-mercaptoethanol (catalog #21985-023, ThermoFisher Scientific, Waltham, MA) at 37° C., 5% CO2, and 95% humidity. Cells were expanded until reaching one million five hundred thousand cells per mL at which time they were subcultured or harvested for assay use. One million five hundred thousand cells per well in 1 mL complete growth medium were dispensed into 12-well plates and incubated overnight. A serial dilution of test compound was added, and cells were incubated at 37° C., 5% CO2, and 95% for four hours. Cells were lysed then ATF4 levels were measured using an ELISA assay (Proteintech, Rosemont, IL). Absorbance is measured at 450 nm and 544 nM using a Synergy2 or equivalent reader (Biotek, Winooski VT). Data were analyzed using PRISM software (Graphpad, San Diego, CA) to calculate fold stimulation of cellular ATF4 relative to vehicle treated control.
# Chain of PERK kinase (Q9NZJ5 other isoform, or with tags, fused parts or gaps): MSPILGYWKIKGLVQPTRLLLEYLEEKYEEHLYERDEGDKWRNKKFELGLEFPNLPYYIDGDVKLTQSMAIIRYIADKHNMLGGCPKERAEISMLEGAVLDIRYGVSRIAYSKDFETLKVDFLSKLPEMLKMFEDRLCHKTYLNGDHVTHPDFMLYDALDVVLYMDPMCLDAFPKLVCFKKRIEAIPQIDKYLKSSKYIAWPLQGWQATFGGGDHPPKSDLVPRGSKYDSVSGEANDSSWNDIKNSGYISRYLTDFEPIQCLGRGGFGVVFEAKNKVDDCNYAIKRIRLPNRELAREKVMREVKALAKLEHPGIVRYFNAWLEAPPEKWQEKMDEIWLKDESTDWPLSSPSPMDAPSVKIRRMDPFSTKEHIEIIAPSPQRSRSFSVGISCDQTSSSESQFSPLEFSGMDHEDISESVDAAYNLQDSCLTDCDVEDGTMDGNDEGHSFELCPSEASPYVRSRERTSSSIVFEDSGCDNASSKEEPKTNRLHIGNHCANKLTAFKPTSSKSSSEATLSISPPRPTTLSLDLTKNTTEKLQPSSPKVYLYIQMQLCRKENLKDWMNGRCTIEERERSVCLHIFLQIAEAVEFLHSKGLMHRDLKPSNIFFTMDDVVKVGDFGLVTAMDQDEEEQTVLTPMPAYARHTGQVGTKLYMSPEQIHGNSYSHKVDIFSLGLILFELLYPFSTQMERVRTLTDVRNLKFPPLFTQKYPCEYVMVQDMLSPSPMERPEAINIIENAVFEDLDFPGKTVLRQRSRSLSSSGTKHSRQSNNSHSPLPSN
structure (smiles),measurement,setting,value
CNc1ncc2cc(-c3cccc(NS(=O)(=O)c4cc(Cl)cnc4OC)c3F)c(NC)nc2n1 [Compound 16],IC50,[1],1000 to 10000 nM
same,IC50,PERK kinase,100 to 500 nM
same,H929 NS ATF4 ELISA (fold stimulation of ATF4 relative to vehicle),[2],+++ (“+++” refers to an ATF4 stim greater than 10 fold and less than or equal to 20 fold)
